Assay results reported in US20110201622A1, “Solid Forms Comprising A Cyclopropyl Amide Derivative” (priority 2010, published 2011).

What was measured:
[1] = Dynamic vapor sorption (DVS) analysis; format: physicochemical; conditions: about ambient temperature, about 0% RH to about 90% RH
Procedure: Solid material obtained according to Example 5 was analyzed by DVS techniques. Isothermic DVS analysis was performed at about ambient temperature by increasing a sample of Form I of Compound I from about 0% RH to about 90% RH.
DVS analysis is performed on samples prepared according to standard methods using standard equipment, e.g., a DVS instrument commercially available from Surface Measurement Systems, Ltd.™(Alperton, London, UK). Samples maintained at ambient temperature are cycled between about 0% RH and about 90% RH. Percent changes in mass are recorded, which are indicative of moisture sorption and desorption.

[2] = Thermal gravimetric analysis (TGA); format: physicochemical
Procedure: Solid material obtained according to the Example 5 was analyzed by thermal techniques.

hygroscopicity (DVS analysis) [1]: substantially nonhygroscopic
mass loss (TGA) ([2]; upon heating from about 20° C. to about 100° C.): about 0.25%
further mass loss (TGA) ([2]; upon heating from about 100° C. to about 160° C.): about 0.25%
Structure (SMILES): C[C@@H]1CN(C2CCC2)CCN1C(=O)[C@H]1C[C@@H]1c1ccc(C(N)=O)cc1 [Form I of Compound I, 4-{(1S, 2S)-2-[((R)-4-cyclobutyl-2-methylpiperazin-1-yl)carbonyl]-cyclopropyl}-benzamide]
